Experimental data taken from US12370210B2, “Carbon monoxide as a treatment for neurodegenerative disease” (The General Hospital Corporation, priority 2019, dated 2025).

Test system: mouse MPTP toxin model
Assay: Mouse MPTP toxin model, striatal DA by HPLC and TH+ neuron counts after inhaled CO
Type: in vivo
Description: FIGS. 7A-C. Effect of single dose inhaled CO in the MPTP model. CO (225 ppm; 1 hr) or air (1 hr) administered 1 hr after MPTP or saline injection (normal control saline data not shown; no difference between groups in normal control animals). Animal sacrifice 5 days after MPTP. A. CO preserved striatal dopamine (DA) (P<0.03, t-test; 22 mice/grp). Striatal DA levels measured with HPLC, B. CO reduced loss of substantia nigra pars compacta (SNpc) tyrosine hydroxylase-positive (TH+) neurons. C. Stereological nigral TH+ neuron counts after CO treatment or air (P<0.05, t-test). Mean±std error.
We also employed a short-term regimen of the widely used^5253 MPTP toxin model in which DA loss ensues within 5-8 days of MPTP. We elected to initiate iCO treatment only after MPTP exposure in order to model protective treatment of human PD, which begins only after disease onset. We exposed mice to MPTP (40 mg/kg, i.p.)^54,55 or saline (study control) and then treated with a single dose of either iCO (225 ppm) or air (negative control) for 1 hr, for 4 total groups: 1) MPTP/CO (225 ppm; 1 hr), 2) MPTP/air (1 hr), 3) saline/CO (225 ppm; 1 hr), 4) saline/air (1 hr). Five days after MPTP exposure, we measured DA levels in the striata via HPLC and counted TH+ neurons in all groups. MPTP mice treated with CO had ˜46% higher DA levels than those treated with air (2-tailed t-test, p=0.028; FIG. 7A). […] Critically, for TH+ neurons, MPTP mice treated with iCO had ˜22% more TH+ neurons than those treated with air (p<0.05; FIGS. 7B-C).

Q: What does the source list for [C-]#[O+] [CO, carbon monoxide]?
A: striatal DA levels higher than air-treated MPTP mice (MPTP 40 mg/kg i.p., CO 225 ppm 1 hr, single dose 1 hr after MPTP, 5 days after MPTP, p=0.028): ~46%; more TH+ neurons than air-treated MPTP mice (MPTP 40 mg/kg i.p., iCO 225 ppm 1 hr, 5 days after MPTP, p<0.05): ~22%; striatal DA levels in saline-treated mice (saline instead of MPTP, iCO 225 ppm 1 hr, n=22 per group, p>0.05 vs air): 97.0 ± 2.4 pmol/mg; TH+ cell counts in saline-treated mice (saline instead of MPTP, iCO 225 ppm 1 hr, p>0.05 vs air): 7,437±545
